What was measured:
HL-60 cells = test: apoptosis-inducing assay, cell morphology under an optical microscope; assay type: cell-based, human
Description: Human promyelocytic leukemia cell HL-60 (ATCC CCL-240) was incubated at 37° C. in RPMI 1640 medium (manufactured by Gibco) supplemented with 10% of fetal bovine serum (JRH Bioscience) which had been treated at 56° C. for 30 minutes, and suspended in the same medium at a concentration of 500 cells/90 μl. Each 90 μl portion of the suspension was distributed into each well of a 96 well plate (manufactured by Falcon). To the suspension in each well was added 10 μl of the above-mentioned acid decomposition solution, a 10-fold dilution of the solution or water, and incubated with 5% CO2 at 37° C. After 24 hour and 48 hour from the initiation of the incubation, the cell morphology was observed under an optical microscope. Then, according to the MTT method described in “Apoptosis Jikken Protocol” (Syuzyun-sha, Tanuma, Seiichi ed., pp. 156 (1994)), 5 mg/ml of 3-(4,5-dimethylthiazole-2-yl)-2,5-diphenyltetrazolium bromide (manufactured by Sigma) and 10 μl of phosphate buffered saline solution were added to the culture and the incubation was continued for additional 4 hours. Then, 100 μl of 2-propanol containing 0.04 N hydrochloric acid was added to the culture, and the mixture was thoroughly stirred. An absorbance at 590 nm was measured and the number of viable cells was calculated from the absorbance measured for each of the wells, which was compared each other.
Each elution peak was fractionated, collected, evaporated to dryness under reduced pressure and then dissolved in 300 μl of water. Each fraction was sterilized by filtration and its 10 μl portion was placed in a well of a 96 well microtiter plate. Then, 90 μl of RPMI 1640 medium (manufactured by Nissui) containing 10% fetal bovine serum (manufactured by Gibco) and 5,000 HL-60 cells (ATCC CCL-240) was added thereto, followed by incubation at 37° C. for 48 hours with 5% CO2. The cell morphology was observed under an optical microscope. Then, 5 mg/ml 3-(4,5-dimethylthiazole-2-yl)-2,5-diphenyltetrazolium bromide and 10 μl of phosphate buffered saline solution were added thereto and the incubation was continued for additional 4 hours. To the culture was added 100 μl of 2-propanol containing 0.04 N hydrochloric acid and the resultant mixture was thoroughly stirred. The absorbance at 590 nm was measured to determine a cell proliferation rate.

spleen lymphocytes [1] = test: lymphocyte blastgenesis induced by Concanavalin A, 3H-thymidine uptake; assay type: cell-based, ddY mouse
Description: A spleen was taken out from a ddY mouse (Nippon SLC; male, 7 weeks old), finely minced and suspended in RPMI-1640 medium (Gibco) containing 10% fetal bovine serum (HyClone) to obtain a single cell suspension. The cell suspension was seeded into a plastic Petri dish, incubated at 37° C. for 2 hours in a carbon dioxide incubator. Adhesive cells adhered to the Petri dish were removed and non-adhesive cells were used as spleen lymphocytes. 200 μl of 2×10^6 cells/ml spleen lymphocytes suspension was seeded into each well of 96 well microtiter plate. Agarobiose at varying concentration was added to the wells other than the control well. Furthermore, to all the wells was added 5 μg of Con A (Nacalai Tesque) and the plate was incubated at 37° C. for one day in a carbon dioxide incubator. After incubation, 1 μCi of ^3H-thymidine was added to each well and incubation was continued for additional one day. Then, its uptake into cells was measured using a liquid scintillation counter.
FIG. 34 illustrates the relation between the agarobiose concentration and the ^3H-thymidine uptake in lymphocyte blastgenesis induced by Con A. The horizontal axis represents the agarobiose concentration and the vertical axis represents the ^3H-thymidine uptake (cpm). The open bar and the shaded bar represent the ^3H-thymidine uptake without stimulation and with stimulation by Con A, respectively. […]

spleen lymphocytes [2] = test: mixed lymphocyte reaction, 3H-thymidine uptake; assay type: cell-based, BALB/c mouse and C57BL/6 mouse
Description: Spleens were taken out from a BALB/c mouse (Nippon SLC; male, 6 weeks old) and a C57BL/6 mouse (Nippon SLC; male, 6 weeks old) and spleen lymphocytes were obtained by the above-described method. Each cell suspension was adjusted to a concentration of 2×10^6 cell/ml, 100 μl portions from respective suspensions were mixed together and seeded in a 96 well microtiter plate. Agarobiose at varying concentration was added to the wells other than the control well, and the plate was incubated at 37° C. for 4 days in a carbon dioxide incubator. After incubation, 1 μCi of ^3H-thymidine was added to each well, and the plate was incubated for additional 1 day. Its uptake into cells was measured using a liquid scintillation counter.
That is, FIG. 35 illustrates the relation between the agarobiose concentration and the ^3H-thymidine uptake in the mixed lymphocyte reaction. The horizontal axis represents the agarobiose concentration and the vertical axis represents ^3H-thymidine uptake (cpm). The open bar and the shaded bar represent ^3H-thymidine uptake in case where cells from either one of the lines were used independently, and in case where mixed cells from both of the lines were used, respectively. […] Thus, the inhibitory activity against lymphocyte activation of agarobiose has been recognized.

RAW 264.7 cells = test: NO production induced by LPS and IFN-γ after pre-incubation with sample; assay type: cell-based, mouse; settings: 10 μl of 5,000 μM solution, pre-incubation 1, 2, 4 or 6 hours before stimulation
Description: (4) RAW 264.7 cells were suspended in the Dulbecco's modified Eagle's medium described in Example 20-(1) at a concentration of 3×10^5 cells/ml, and 500 μl portions thereof were placed in respective wells of a 48 well microtiter plate. The plate was incubated for 37° C. for 10 hours in the presence of 5 % carbon dioxide. To the wells was added 10 μl of aqueous 5,000 μM agarobiose solution and incubated for additional 1, 2, 4 or 6 hours. Then, the culture supernatant was removed from the well and to each well were added 500 μl of fresh Dulbecco's modified Eagle's medium and then 10 μl of aqueous 2.5 μg/ml LPS and aqueous 800 U/ml interferon-Υ (IFN-Υ, sold by Cosmobio, GZM-MG-IFN) solution. The plate was incubated for 1 hour. Then, the culture supernatant was removed from the well and to each well was added 500 μl of fresh Dulbecco's modified Eagle's medium and the plate was incubated for additional 16 hours. The concentration of NO2^− produced by oxidation of NO in the medium was measured according to the same manner as that described in Example 20-(1). As control groups, a group to which neither LPS nor IFN-Υ was added and a group to which agarobiose was not added were provided. All the measurements were carried out in duplicate.

OC[C@H]1O[C@@H](O[C@H]2[C@H]3OC[C@@H]2OC(O)[C@H]3O)[C@H](O)[C@@H](O)[C@H]1O (mixture of isomers) [Agarobiose, agarobiose]
apoptosis corpuscles under an optical microscope (HL-60 cells; 78 μg/ml): apoptosis corpuscles were observed | apoptosis-inducing activity (apoptosis corpuscles, in words) (HL-60 cells; preparations and fractions): had both activities | inhibitory activity against lymphocyte blastgenesis induced by Con A (in words) (spleen lymphocytes [1]): dose-dependent inhibitory activity | inhibition of mouse lymphocyte proliferation stimulated by mitogen (spleen lymphocytes [1]; Con A, 100 μg/ml): almost completely inhibits | inhibitory activity against mixed lymphocyte reaction (in words) (spleen lymphocytes [2]): dose-dependent inhibitory activity | inhibition of lymphocytes activation by stimulation with an alloantigen (spleen lymphocytes [2]; 10 μg/ml): almost completely inhibits | inhibition of NO production induced by LPS and IFN-γ (in words) (RAW 264.7 cells): the longer the pre-incubation time was, the higher the inhibition
